Data set [1] concerns RSV A2 strain. Briefly: Assessment of RSV induced CPE in HEp2 cells (RSV A2 strain). It is filed as cell-based. Particulars: human respiratory syncytial virus, HEp2 cells; for IC50: HEp-2, 120 h, 1 MOI, 5 days, read-out: RSV A2 CPE IC50; for inhibition at 0.1 µg/mL / inhibition at 0.01 µg/mL: HEp-2; for inhibition at 0.1 µg/mL: Inhibition (%) at 0.1 μg/mL, read-out: RSV A2 CPE % Inhibition; for inhibition at 0.01 µg/mL: Inhibition (%) at 0.01 μg/mL. The essentials: (§1)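 HEp2 cells were infected at MOI 1 with RSV A2 or RSV B Washington, with compound added at the same time (0.5% DMSO final). Incubation was 5 days for A2 and 6 days for B, then viability was read by resazurin fluorescence (545/590 nm) after 6 h. IC50, IC75 and IC90 came from concentration-response curves.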

The subject of data set [2] is RSV B Washington strain. Description: Assessment of RSV induced CPE in HEp2 cells (RSV B Washington strain). It is filed as cell-based. The conditions noted are these: human respiratory syncytial virus, HEp2 cells; for IC50: HEp-2, 144 h, 1 MOI, 6 days, read-out: RSV B CPE IC50; for inhibition at 1 µg/mL: HEp-2, Inhibition (%) at 1 μg/mL, read-out: RSV B CPE % Inhibition. The essentials:
as §1

Data set [3] concerns RSV A2 F-protein expression in BEAS2B bronchial epithelial cells. Briefly: Assessment of RSV F protein expression in BEAS2B bronchial epithelial cells. It is filed as cell-based. Particulars: human respiratory syncytial virus, BEAS-2B, 72 h, read-out: RSV A2 F-protein IC50 (nM). On the procedure: Assessment of RSV F Protein Expression in BEAS2B Bronchial Epithelial Cells
An early event which follows the infection of epithelial cells by RSV is the expression of RSV F-protein on the cells' surface. BEAS2B cells (SV40-immortalised human bronchial epithelial cell line) were grown in 96 well plates. Once more than 70% confluent, cells were infected with RSV A2 (#0709161v, NCPV, Public Health England, Wiltshire) at an MOI of 0.01 in clear RPMI-1640 medium (Life technologies, Paisley, UK) with 2% FBS (Life technologies, Paisley, UK), and incubated for 3 days (37° C./5% CO2).
Supernatant was aspirated and the cells were fixed with 4% formaldehyde (100 μL in PBS solution) for 20 min, washed 3 times with washing buffer (200 μL; PBS containing 0.05% Tween-20) and incubated with blocking solution (100 μL; 5% Marvel milk in PBS) for 1 hr. Cells were then washed with washing buffer (200 μL) and incubated for 1 hr at 37° C. with anti-RSV (2F7; mouse monoclonal, lot 160290, Cat. No. ab43812, Abcam plc, Cambridge, UK) F-fusion protein antibody (50 μL; prepared at a 1:1000 dilution in 5% milk/PBS-tween). After washing, cells were incubated with an HRP-conjugated anti-mouse IgG antibody (50 μL prepared at a 1:2000 dilution in 5% milk in PBS; lot 00095437, Cat.No. P0447, Dako UK Ltd, Cambridgeshire, UK) for 1 hr. Cells were washed twice with washing buffer and once with PBS. TMB substrate (100 μL; substrate reagent pack lot 320436, Cat. No. DY999, R&D Systems, Inc. Abingdon, UK) was then added and the reaction was stopped by the addition of aq sulfuric acid (50 μL; 2N). The resultant signal was determined colourimetrically (OD: 450 nm with a reference wavelength of 655 nm) in a microplate reader (Multiskan FC®, ThermoFisher Scientific). Cells were then washed and 1% crystal violet solution (50 μL; lot SLB4576, Cat. No. HT90132-1L, Sigma-Aldrich) was applied for 30 min. After washing with PBS (200 μL) 3 times, 1% SDS (100 μL) was added to each well, and plates were shaken lightly for 1 hr prior to reading the absorbance at 595 nm. The measured OD450-655 readings were corrected for cell number by dividing the OD450-655 by the OD595 readings. The percentage inhibition for each well was calculated and the IC50 value derived from the concentration-response curve generated for each test compound.

A short description of data set [4]: Cell viability: resazurin assay. Particulars: human, HEp2 cells. It is filed as cell-based, human. The essentials:
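Viability read-out: resazurin fluorescence (ex 545, em 590 nm) after 6 h, following 5-day compound incubation of HEp2 cells (37 °C, 5% CO2, 5% FBS, 0.5% DMSO final). Loss expressed as percentage of vehicle, negative if viability rose; CC50 derived from concentration-response curve where appropriate.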
Background: The colour change of resazurin is a common sign of viable cells or microbes.

This note sets out measurements from patent publication US10189863B2, “5,6-dihydro-4H-benzo[b]thieno-[2,3-d]azepine derivatives” (PULMOCIDE LIMITED, priority 2014, dated 2019).

The structures appear in SMILES notation.

Turning to `O=C(Nc1ccc(F)cc1Cl)c1cc2c(s1)-c1ccccc1N(C(=O)c1ccc(NC(=O)c3cccnc3N3CC4(CCOCC4)C3)cc1)CC2` [Example 27, 6-(4-(2-(7-oxa-2-azaspiro[3.5]nonan-2-yl)nicotinamido)benzoyl)-N-(2-chloro-4-fluorophenyl)-5,6-dihydro-4H-benzo [b]thieno[2,3-d]azepine-2-carboxamide], in data set [1], the IC50 is 0.17 nM and the inhibition at 0.1 µg/mL is 100%. Moreover, in data set [2], the IC50 amounted to 37.4 nM and the inhibition at 1 µg/mL was 100%. For the same molecule, in data set [3], the IC50 turned out to be 0.51 nM. Also, the CC50 at 5 days in data set [4] was above 13800 nM.

Regarding `O=C(Nc1ccccc1F)c1cc2c(s1)-c1ccccc1N(C(=O)c1ccc(NC(=O)c3cccnc3N3CC4(CCOCC4)C3)cc1)CC2` [Example 15, 6-(4-(2-(7-oxa-2-azaspiro[3.5]nonan-2-yl)nicotinamido)benzoyl)-N-(2-fluorophenyl)-5,6-dihydro-4H-benzo[b]thieno [2,3-d]azepine-2-carboxamide], the IC50 turned out to be 0.4 nM in data set [1], 20.4 nM in data set [2] and 0.36 nM in data set [3]. In addition, in data set [1], the inhibition at 0.1 µg/mL turned out to be 100%. Besides, the inhibition at 1 µg/mL in data set [2] was determined as 85%. This molecule also displayed a CC50 at 5 days in data set [4] above 14500 nM.

With `O=C(Nc1ccccc1Cl)c1cc2c(s1)-c1ccccc1N(C(=O)c1ccc(NC(=O)c3cccnc3N3CC4(CCOCC4)C3)cc1)CC2` [Example 16, 6-(4-(2-(7-oxa-2-azaspiro[3.5]nonan-2-yl)nicotinamido)benzoyl)-N-(2-chlorophenyl)-5,6-dihydro-4H-benzo[b]thieno [2,3-d]azepine-2-carboxamide], in data set [1], the IC50 was 0.76 nM and the inhibition at 0.1 µg/mL amounted to 100%. In data set [2], the IC50 was determined as 142 nM and the inhibition at 1 µg/mL was 63%. Moreover, the half-maximal inhibitory concentration (IC50) in data set [3] amounted to 0.93 nM. The molecule also had a CC50 at 5 days in data set [4] above 14200 nM.

`O=C(Nc1c(F)cccc1Cl)c1cc2c(s1)-c1ccccc1N(C(=O)c1ccc(NC(=O)c3cc(C4CC4)cnc3N3CC4(CCOCC4)C3)cc1)CC2` [Example 65, N-(2-chloro-6-fluorophenyl)-6-(4-(5-cyclopropyl-2-(7-oxa-2-azaspiro[3.5]nonan-2-yl)nicotinamido)benzoyl)-5,6-dihydro-4H-benzo[b]thieno[2,3-d]azepine-2-carboxamide]: in data set [1], the IC50 turned out to be 0.13 nM and 0.01 µg/mL produced 100% inhibition. In data set [2], the IC50 amounted to 1.6 nM and the inhibition at 1 µg/mL amounted to 100%. Moreover, the IC50 in data set [3] came out at 0.59 nM. The molecule further came in with a CC50 at 5 days in data set [4] above 13100 nM.

As to `O=C(Nc1c(F)cccc1F)c1cc2c(s1)-c1ccccc1N(C(=O)c1ccc(NC(=O)c3cc4c(nc3N3CC5(CCOCC5)C3)CCC4)cc1)CC2` [Example 75, 6-(4-(2-(7-oxa-2-azaspiro[3.5]nonan-2-yl)-6,7-dihydro-5H-cyclopenta[b]pyridine-3-carboxamido)benzoyl)-N-(2,6-difluorophenyl)-5,6-dihydro-4H-benzo[b]thieno[2,3-d] azepine-2-carboxamide], the values for the IC50 in data set [1], in data set [2] and in data set [3] were 0.1 nM, 2.3 nM and 0.25 nM, respectively. In addition, the inhibition at 0.01 µg/mL in data set [1] was found to be 84%. In data set [2], the inhibition at 1 µg/mL is 100%. Also, the CC50 at 5 days in data set [4] was above 13400 nM.

A word on the IC50: it is the midpoint of a concentration-inhibition curve. Broadly, the inhibition is the drop in the measured response relative to a control, in per cent. As usually defined, the CC50 is the concentration at which the toxic effect on the cells reaches its halfway point. Low values mean harm at low concentration, high ones better tolerance by the cells.
